# Literature values as cited in US20100183687A1, “PROCESS FOR PREPARING PARTICLES OF OPIOIDS AND COMPOSITIONS PRODUCED THEREBY” (priority 2009, published 2010).
# Conditions: water
compound,measurement,value
COc1ccc2c3c1O[C@H]1C(=O)CC[C@@]4(O)[C@@H](C2)N(C)CC[C@]314.Cl [oxycodone hydrochloride],solubility at neutral pH,100 mg/ml
